Target: T1, human NaV1.6 (hNaV1.6) (Homo sapiens, UniProt Q9UQD0)
T1 construct: expressed in transfected cells; host or cells: HEK-293
Assay: Modulation of late sodium current (INaL), PatchXpress electrophysiology, HEK-293 cells expressing hNaV1.6
Format: cell-based
Details: HEK293, late current evoked by 300 nM ATX-II, read-out: NaV 1.6 Assay Data: percent inhibition of INaL at hNaV1.6
Experimental: Functional characterization of exemplary compounds to modulate INaL expressed by the NaV1.6 voltage-gated sodium channel was accomplished using the PatchXpress™ high throughput electrophysiology platform (Molecular Devices, Sunnyvale, Calif.). HEK-293 cells expressing recombinant, human NaV1.6 (hNaV1.6) were grown in DMEM/high-glucose Dulbecco's modified, 10% FBS, 2 mM sodium pyruvate, 10 mM HEPES and 400 μg/mL G418. Cells were grown to 50%-80% confluency prior to harvesting. Trypsinized cells were washed, allowed to recover for 1 hour and then resuspended in extracellular recording solution at a concentration of 1×10^6 cells/ml. The onboard liquid handling facility of the PatchXpress was used for dispensing cells and applying test compounds. NaV late currents were evoked by the application of 300 nM ATX-II. INaL was evoked by depolarizing pulses to 0 mV for 200 ms from a non-inactivating holding potential (e.g., −120 mV) at a frequency of 0.1 Hz. INaL amplitude and stability were determined by analyzing the mean current amplitude over the final 20 ms of the test pulse. Following steady state block with exemplary compounds (e.g., as described herein), a Na+ free solution containing an impermeant cation (e.g., Choline or NDMG) was added to confirm the identify of the sodium current. Percent steady-state inhibition of INaL was calculated as: [(INaL_compound)/(INaL_control)]*100, where INaL_compound and INaL_control represent INaL recorded in the presence or absence of compound, respectively.

T1 sequence (Q9UQD0 whole entry): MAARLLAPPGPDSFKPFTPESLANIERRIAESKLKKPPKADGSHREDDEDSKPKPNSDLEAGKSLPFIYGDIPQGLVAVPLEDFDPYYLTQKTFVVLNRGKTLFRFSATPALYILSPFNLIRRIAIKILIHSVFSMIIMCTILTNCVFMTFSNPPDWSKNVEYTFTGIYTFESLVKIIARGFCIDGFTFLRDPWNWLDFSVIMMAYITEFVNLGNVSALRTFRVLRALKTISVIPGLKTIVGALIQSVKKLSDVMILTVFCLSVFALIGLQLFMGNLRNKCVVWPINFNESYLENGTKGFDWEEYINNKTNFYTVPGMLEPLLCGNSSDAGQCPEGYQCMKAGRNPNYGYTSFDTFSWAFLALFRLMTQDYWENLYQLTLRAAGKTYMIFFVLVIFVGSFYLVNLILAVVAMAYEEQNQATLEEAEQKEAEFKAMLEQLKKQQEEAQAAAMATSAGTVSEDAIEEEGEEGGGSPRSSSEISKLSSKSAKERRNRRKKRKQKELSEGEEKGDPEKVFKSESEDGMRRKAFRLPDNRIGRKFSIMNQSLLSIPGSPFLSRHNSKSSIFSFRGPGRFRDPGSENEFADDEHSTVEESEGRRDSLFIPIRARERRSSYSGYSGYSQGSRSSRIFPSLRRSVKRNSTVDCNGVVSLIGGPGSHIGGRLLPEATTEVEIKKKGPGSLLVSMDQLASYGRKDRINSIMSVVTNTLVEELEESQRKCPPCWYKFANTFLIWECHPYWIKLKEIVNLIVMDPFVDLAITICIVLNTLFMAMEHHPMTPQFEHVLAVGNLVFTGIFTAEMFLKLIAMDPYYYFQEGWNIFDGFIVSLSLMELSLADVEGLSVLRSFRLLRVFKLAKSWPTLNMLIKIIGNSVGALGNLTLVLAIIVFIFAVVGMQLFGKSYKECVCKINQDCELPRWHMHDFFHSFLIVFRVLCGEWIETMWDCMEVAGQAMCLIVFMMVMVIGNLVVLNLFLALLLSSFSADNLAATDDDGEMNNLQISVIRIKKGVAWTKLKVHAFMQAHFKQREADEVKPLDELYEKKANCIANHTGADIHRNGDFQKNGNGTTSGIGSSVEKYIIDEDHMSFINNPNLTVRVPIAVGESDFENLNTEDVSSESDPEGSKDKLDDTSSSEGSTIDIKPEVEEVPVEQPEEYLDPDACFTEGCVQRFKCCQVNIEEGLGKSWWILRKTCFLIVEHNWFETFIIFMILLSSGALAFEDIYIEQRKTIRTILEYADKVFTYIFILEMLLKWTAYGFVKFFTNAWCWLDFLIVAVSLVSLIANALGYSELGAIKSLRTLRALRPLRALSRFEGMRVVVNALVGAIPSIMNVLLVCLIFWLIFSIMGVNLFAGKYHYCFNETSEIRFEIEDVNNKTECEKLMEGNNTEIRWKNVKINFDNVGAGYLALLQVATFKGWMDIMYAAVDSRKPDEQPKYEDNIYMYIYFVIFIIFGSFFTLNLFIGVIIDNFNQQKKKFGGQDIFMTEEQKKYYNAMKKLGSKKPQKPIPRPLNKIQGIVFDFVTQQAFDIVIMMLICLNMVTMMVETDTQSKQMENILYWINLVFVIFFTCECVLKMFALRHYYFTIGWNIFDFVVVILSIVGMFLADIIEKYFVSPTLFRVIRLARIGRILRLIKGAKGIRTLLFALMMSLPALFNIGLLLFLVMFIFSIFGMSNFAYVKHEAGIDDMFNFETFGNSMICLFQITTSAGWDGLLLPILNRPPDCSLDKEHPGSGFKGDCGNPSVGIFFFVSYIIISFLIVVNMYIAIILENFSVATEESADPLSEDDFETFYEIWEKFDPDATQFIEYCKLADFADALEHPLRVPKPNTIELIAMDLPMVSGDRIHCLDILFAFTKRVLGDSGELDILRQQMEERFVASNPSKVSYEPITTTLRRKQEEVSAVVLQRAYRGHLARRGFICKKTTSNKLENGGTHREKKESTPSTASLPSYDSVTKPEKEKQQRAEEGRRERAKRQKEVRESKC

inhibition at 1 µM [%]	Compound
> 70	CCOC(F)(F)c1nnc2ccc(-c3cnc(O[C@H](C)C(F)(F)F)c(F)c3)cn12 [Compound 34, 3-[ethoxy(difluoro)methyl]-6-[5-fluoro-6-[(1R)-2,2,2-trifluoro-1-methyl-ethoxy]-3-pyridyl]-[1,2,4]triazolo[4,3-a]pyridine]
> 70	C[C@@H](Oc1ncc(-c2ccc3nnc(C(F)(F)OC4CC4)n3c2)cc1F)C(F)(F)F [Compound 36, 3-[cyclopropoxy(difluoro)methyl]-6-[5-fluoro-6-[(1R)-2,2,2-trifluoro-1-methyl-ethoxy]-3-pyridyl]-[1,2,4]triazolo[4,3-a]pyridine]
> 70	C[C@H](Oc1ncc(-c2ccc3nnc(C(F)(F)OC4CC4)n3c2)cc1F)C(F)(F)F [Compound 37, 3-[cyclopropoxy(difluoro)methyl]-6-[5-fluoro-6-[(1S)-2,2,2-trifluoro-1-methyl-ethoxy]-3-pyridyl]-[1,2,4]triazolo[4,3-a]pyridine]
30 to 70	COCc1nnc2cnc(-c3cnc(O[C@@H](C)C(F)(F)F)c(F)c3)cn12 [Compound 38, 6-[5-fluoro-6-[(1S)-2,2,2-trifluoro-1-methyl-ethoxy]-3-pyridyl]-3-(methoxymethyl)-[1,2,4]triazolo[4,3-a]pyrazine]
< 30	COCc1nnc2cnc(-c3cnc(OCC(F)(F)F)c(F)c3)cn12 [Compound 39, 6-[5-fluoro-6-(2,2,2-trifluoroethoxy)-3-pyridyl]-3-(methoxymethyl)-[1,2,4]triazolo[4,3-a]pyrazine]
> 70	CCOC(F)(F)c1nnc2ccc(-c3cnc(O[C@@H](C)C(F)(F)F)c(F)c3)nn12 [Compound 41, 3-[ethoxy(difluoro)methyl]-6-[5-fluoro-6-[(1S)-2,2,2-trifluoro-1-methyl-ethoxy]-3-pyridyl]-[1,2,4]triazolo[4,3-b]pyridazine]
> 70	CCOC(F)(F)c1nnc2ccc(-c3cnc(O[C@H](C)C(F)(F)F)c(F)c3)nn12 [Compound 42, 3-[ethoxy(difluoro)methyl]-6-[5-fluoro-6-[(1R)-2,2,2-trifluoro-1-methyl-ethoxy]-3-pyridyl]-[1,2,4]triazolo[4,3-b]pyridazine]
> 70	CCOCc1nnc2cnc(-c3cnc(O[C@@H](C)C(F)(F)F)c(F)c3)cn12 [Compound 50, 3-(ethoxymethyl)-6-[5-fluoro-6-[(1S)-2,2,2-trifluoro-1-methyl-ethoxy]-3-pyridyl]-[1,2,4]triazolo[4,3-a]pyrazine]
> 70	C[C@@H](Oc1ncc(-c2cn3c(C(F)(F)OC4CC4)nnc3cn2)cc1F)C(F)(F)F [Compound 51, 3-[cyclopropoxy(difluoro)methyl]-6-[5-fluoro-6-[(1R)-2,2,2-trifluoro-1-methyl-ethoxy]-3-pyridyl]-[1,2,4]triazolo[4,3-a]pyrazine]
30 to 70	CCOCc1nnc2cnc(-c3cnc(O[C@H](C)C(F)(F)F)c(F)c3)cn12 [Compound 52, 3-(ethoxymethyl)-6-[5-fluoro-6-[(1R)-2,2,2-trifluoro-1-methyl-ethoxy]-3-pyridyl]-[1,2,4]triazolo[4,3-a]pyrazine]
> 70	COC(F)(F)c1nnc2cnc(-c3cnc(O[C@@H](C)C(F)(F)F)c(F)c3)c(C)n12 [Compound 58, 3-[difluoro(methoxy)methyl]-6-[5-fluoro-6-[(1S)-2,2,2-trifluoro-1-methyl-ethoxy]-3-pyridyl]-5-methyl-[1,2,4]triazolo[4,3-a]pyrazine]
30 to 70	COC(F)(F)c1nnc2cnc(-c3cnc(O[C@H](C)C(F)(F)F)c(F)c3)c(C)n12 [Compound 60, 3-[difluoro(methoxy)methyl]-6-[5-fluoro-6-[(1R)-2,2,2-trifluoro-1-methyl-ethoxy]-3-pyridyl]-5-methyl-[1,2,4]triazolo[4,3-a]pyrazine]
30 to 70	COC(F)(F)c1nnc2cnc(-c3cnc(OCC(F)(F)F)c(F)c3)c(C)n12 [Compound 61, 3-[difluoro(methoxy)methyl]-6-[5-fluoro-6-(2,2,2-trifluoroethoxy)-3-pyridyl]-5-methyl-[1,2,4]triazolo[4,3-a]pyrazine]
> 70	C[C@H](Oc1ncc(-c2cn3c(C(F)(F)OC4CC4)nnc3cn2)cc1F)C(F)(F)F [Compound 63, 3-[cyclopropoxy(difluoro)methyl]-6-[5-fluoro-6-[(1S)-2,2,2-trifluoro-1-methyl-ethoxy]-3-pyridyl]-[1,2,4]triazolo[4,3-a]pyrazine]
> 70	CCOC(F)(F)c1nnc2cnc(-c3cnc(OCc4ccccc4)c(F)c3)cn12 [Compound 64, 6-(6-benzyloxy-5-fluoro-3-pyridyl)-3-[ethoxy(difluoro)methyl]-[1,2,4]triazolo[4,3-a]pyrazine]
30 to 70	COC(F)(F)c1nnc2cc(C)c(-c3cnc(OCC(F)(F)F)c(F)c3)nn12 [Compound 65, 3-[difluoro(methoxy)methyl]-6-[5-fluoro-6-(2,2,2-trifluoroethoxy)-3-pyridyl]-7-methyl-[1,2,4]triazolo[4,3-b]pyridazine]
> 70	COC(F)(F)c1nnc2cc(C)c(-c3cnc(O[C@H](C)C(F)(F)F)c(F)c3)nn12 [Compound 66, 3-[difluoro(methoxy)methyl]-6-[5-fluoro-6-[(1R)-2,2,2-trifluoro-1-methyl-ethoxy]-3-pyridyl]-7-methyl-[1,2,4]triazolo[4,3-b]pyridazine]
> 70	CCOC(F)(F)c1nnc2cnc(-c3cnc(O[C@@H](C)C(F)(F)F)c(F)c3)c(C)n12 [Compound 67, 3-[ethoxy(difluoro)methyl]-6-[5-fluoro-6-[(1S)-2,2,2-trifluoro-1-methyl-ethoxy]-3-pyridyl]-5-methyl-[1,2,4]triazolo[4,3-a]pyrazine]

Compound	inhibition at 1 µM [%]
COCc1nnc2ccc(-c3cnc(OCC(F)(F)F)c(F)c3)nn12 [Compound 35, 6-[5-fluoro-6-(2,2,2-trifluoroethoxy)-3-pyridyl]-3-(methoxymethyl)-[1,2,4]triazolo[4,3-b]pyridazine]	< 30
COCc1nnc2ccc(-c3cnc(O[C@H](C)C(F)(F)F)c(F)c3)cn12 [Compound 40, 6-[5-fluoro-6-[(1R)-2,2,2-trifluoro-1-methyl-ethoxy]-3-pyridyl]-3-(methoxymethyl)-[1,2,4]triazolo[4,3-a]pyridine]	< 30
COCc1nnc2ccc(-c3cnc(O[C@@H](C)C(F)(F)F)c(F)c3)cn12 [Compound 43, 6-[5-fluoro-6-[(1S)-2,2,2-trifluoro-1-methyl-ethoxy]-3-pyridyl]-3-(methoxymethyl)-[1,2,4]triazolo[4,3-a]pyridine]	30 to 70
COCc1nnc2ccc(-c3cnc(O[C@@H](C)C(F)(F)F)c(F)c3)nn12 [Compound 44, 6-[5-fluoro-6-[(1S)-2,2,2-trifluoro-1-methyl-ethoxy]-3-pyridyl]-3-(methoxymethyl)-[1,2,4]triazolo[4,3-b]pyridazine]	30 to 70
CC(C)COC(F)(F)c1nnc2cnc(-c3cnc(O[C@@H](C)C(F)(F)F)c(F)c3)cn12 [Compound 45, 3-[difluoro(isobutoxy)methyl]-6-[5-fluoro-6-[(1S)-2,2,2-trifluoro-1-methyl-ethoxy]-3-pyridyl]-[1,2,4]triazolo[4,3-a]pyrazine]	> 70
COCc1nnc2ccc(-c3cnc(O[C@H](C)C(F)(F)F)c(F)c3)nn12 [Compound 46, 6-[5-fluoro-6-[(1R)-2,2,2-trifluoro-1-methyl-ethoxy]-3-pyridyl]-3-(methoxymethyl)-[1,2,4]triazolo[4,3-b]pyridazine]	30 to 70
CC(C)COC(F)(F)c1nnc2ccc(-c3cnc(O[C@@H](C)C(F)(F)F)c(F)c3)nn12 [Compound 47, 3-[difluoro(isobutoxy)methyl]-6-[5-fluoro-6-[(1S)-2,2,2-trifluoro-1-methyl-ethoxy]-3-pyridyl]-[1,2,4]triazolo[4,3-b]pyridazine]	> 70
CC(C)COC(F)(F)c1nnc2ccc(-c3cnc(O[C@H](C)C(F)(F)F)c(F)c3)nn12 [Compound 49, 3-[difluoro(isobutoxy)methyl]-6-[5-fluoro-6-[(1R)-2,2,2-trifluoro-1-methyl-ethoxy]-3-pyridyl]-[1,2,4]triazolo[4,3-b]pyridazine]	> 70
COC(F)(F)c1nnc2cnc(-c3ccc(OC4(C(F)(F)F)CCC4)nc3)cn12 [Compound 57]	> 70
COC(F)(F)c1nnc2cc(C)c(-c3cnc(O[C@@H](C)C(F)(F)F)c(F)c3)nn12 [Compound 68, 3-[difluoro(methoxy)methyl]-6-[5-fluoro-6-[(1S)-2,2,2-trifluoro-1-methyl-ethoxy]-3-pyridyl]-7-methyl-[1,2,4]triazolo[4,3-b]pyridazine]	> 70
COCc1nnc2cc(C)c(-c3cnc(OC(C)(C)C(F)(F)F)c(F)c3)nn12 [Compound 69, 6-[5-fluoro-6-(2,2,2-trifluoro-1,1-dimethyl-ethoxy)-3-pyridyl]-3-(methoxymethyl)-7-methyl-[1,2,4]triazolo[4,3-b]pyridazine]	30 to 70
